How the values were obtained:
[1] = system: a variety of test species; assay: Post-emergence herbicidal activity (Example 8b, Table 3); type: in vivo; details: application post-emergence, rate 1000 g/ha, evaluated after 13 days, scale 0-5; for Herbicidal damage score, ABUTH: Abutilon theophrasti; for Herbicidal damage score, ALOMY: Alopecurus myosuroides; for Herbicidal damage score, AMARE: Amaranthus retroflexus; for Herbicidal damage score, ECHCG: Echinochloa crus-galli; for Herbicidal damage score, SETFA: Setaria faberi; for Herbicidal damage score, ZEAMX: Zea mays
Method: (§1) Seeds of a variety of test species were sown in standard soil in pots. After 8 days cultivation (post-emergence) under controlled conditions in a glasshouse (at 24/16° C., day/night; 14 hours light; 65% humidity), the plants were sprayed with an aqueous spray solution derived from the formulation of the technical active ingredient in acetone/water (50:50) solution containing 0.5% Tween 20 (polyoxyethelyene sorbitan monolaurate, CAS RN 9005-64-5). The test plants were then grown in a glasshouse under controlled conditions (at 24/16° C., day/night; 14 hours light; 65% humidity) and watered twice daily. After 13 days, the test was evaluated (5=total damage to plant; 0=no damage to plant).

[2] = system: a variety of test species; assay: Pre-emergence herbicidal activity (Example 8a, Table 2); type: in vivo; set-up: key: 0 = no damage to plant, 5 = total damage to plant; details: application pre-emergence, rate 1000 g/ha, evaluated after 13 days
Method: as §1, with “After” for “After 8 days”, “for one day (pre-emergence)” for “(post-emergence)”

| Compound | Herbicidal damage score, ABUTH [1] | Herbicidal damage score, ALOMY [1] | Herbicidal damage score, AMARE [1] | Herbicidal damage score, ECHCG [1] | Herbicidal damage score, SETFA [1] | Herbicidal damage score, ZEAMX [1] | Pre-emergence herbicidal activity, damage score ABUTH [2] | Pre-emergence herbicidal activity, damage score ALOMY [2] | Pre-emergence herbicidal activity, damage score AMARE [2] | Pre-emergence herbicidal activity, damage score ECHCG [2] | Pre-emergence herbicidal activity, damage score SETFA [2] | Pre-emergence herbicidal activity, damage score ZEAMX [2] |
| --- | --- | --- | --- | --- | --- | --- | --- | --- | --- | --- | --- | --- |
| CCOC(c1cc(N2C(=O)C(Cl)=C(C)C2O)nn1C)C(C)(C)C (mixture of isomers) [Compound B34] | 5 | 3 | 2 | 3 | 3 | 0 | 4 | 2 | 2 | 3 | 1 | 1 |
| CC1=C(Cl)C(=O)N(c2cc(C(F)C(C)(C)C)n(C)n2)C1O (mixture of isomers) [Compound B37] | 4 | 5 | 5 | 5 | 5 | 4 | 4 | 3 | 5 | 3 | 4 | 3 |
| CC1=C(Cl)C(=O)N(c2cc(C(C)(F)C(C)(C)C)n(C)n2)C1O (mixture of isomers) [Compound B40] | 5 | 4 | 5 | 5 | 5 | 1 | 5 | 1 | 3 | 2 | 3 | 0 |
| CC1=C(Cl)C(=O)N(c2cc(C(C)c3ccccc3)n(C)n2)C1O (mixture of isomers) [Compound B41] | 5 | 5 | 4 | 5 | 5 | 2 | 4 | 3 | 2 | 4 | 4 | 2 |
| CC1=C(Cl)C(=O)N(c2cc([S+](C)[O-])n(C)n2)C1O (mixture of isomers) [Compound B46] | 5 | 4 | 5 | 5 | 5 | 4 | 5 | 3 | 5 | 4 | 4 | 1 |
| CCC1CCn2nc(N3C(=O)C(Cl)=C(C)C3O)cc21 (mixture of isomers) [Compound C10] | 5 | 4 | 5 | 5 | 5 | 4 | 4 | 4 | 5 | 4 | 5 | 2 |
| CC1=C(Cl)C(=O)N(c2cc3n(n2)CCC3C)C1O (mixture of isomers) [Compound G1] | 5 | 5 | 5 | 5 | 5 | 5 | 5 | 4 | 5 | 5 | 4 | 3 |
| CCC1CCCn2nc(N3C(=O)C(Cl)=C(C)C3O)cc21 (mixture of isomers) [Compound G5] | 5 | 4 | 5 | 5 | 5 | 5 | 5 | 3 | 5 | 5 | 4 | 1 |
| CC1=C(Cl)C(=O)N(c2cc3n(n2)CCC3C)C1O (mixture of isomers) [Compound G6] | 5 | 5 | 5 | 5 | 5 | 5 | 5 | 4 | 5 | 5 | 4 | 3 |
| CCC1CCCn2nc(N3C(=O)C(Cl)=C(C)C3O)cc21 (mixture of isomers) [Compound G7] | 5 | 4 | 5 | 5 | 5 | 5 | 5 | 3 | 5 | 5 | 4 | 1 |
| CC1=C(Cl)C(=O)N(c2cc3n(n2)CC[S+]([O-])C3(C)C)C1O (mixture of isomers) [Compound G12] | 4 | 3 | 4 | 4 | 3 | 1 | 4 | 3 | 4 | 4 | 3 | 3 |
| CC1=C(Br)C(=O)N(c2cc3n(n2)CC[S+]([O-])C3(C)C)C1O (mixture of isomers) [Compound M5] | 4 | 2 | 2 | 2 | 1 | 0 | 2 | 1 | 2 | 2 | 1 | 1 |
| CC1=C(Cl)C(=O)N(c2cc(C(C)(C)C)[nH]n2)C1O (stereo not drawn) [Compound A1] | 5 | 5 | 5 | 5 | 5 | 5 | 5 | 3 | 5 | 5 | 5 | 2 |
| CC1=C(Cl)C(=O)N(c2cc(C(F)(F)F)[nH]n2)C1O (stereo not drawn) [Compound A2] | 5 | 4 | 3 | 4 | 5 | 1 | 5 | 0 | 5 | 3 | 0 | 2 |

Reference: patent publication US9605004B2, “Chemical compounds” (SYNGENTA LIMITED, priority 2013, dated 2017)
